From patent US20250092044A1, “Kinase Inhibitors” (Incyte Corporation, priority 2023, published 2025)
Values after ≈ are worked out from the molar mass of the structure shown. Where two headings read alike, the source gives them in different places.

Assays:
[1] = biological target: pseudo-kinase domain (JH2) of human V617F mutant JAK2 (Homo sapiens (Human), UniProt O60674, F794H/V617F/W659A/W777A); experiment: JAK2 LanthaScreen JH2-V617F Binding Assay; settings: read-out: JH2 V617F Bind IC50
Procedure, shortened: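 Biotinylated His-Avi JAK2 JH2 (aa 536-812, V617F plus W659A/W777A/F794H; 0.26 nM) incubated 1 h at 25 °C with compound, 50 nM fluorescent JH2 tracer and 0.25 nM streptavidin-Tb in Tris pH 7.5 buffer. TR-FRET tracer displacement read; nonspecific binding with 2 mM ATP; IC50 from four-parameter fit.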

[2] = FaSSIF Solubility Assay; type: physicochemical; settings: FaSSIF (fasted state simulated intestinal fluid), 25 °C, pH 6.5, fassif, thermodynamic from solid, FaSSIF pH=6.5, 25° C.
Description: The FaSSIF (Fasted State Simulated Intestinal Fluid) solubility assay can predict how an oral drug is likely to be dissolved and potentially absorbed in the upper intestine after drinking a glass of water. FaSSIF solubility assay utilizes biorelevant intestinal media (Biorelevant, Part #FFF01) comprised of physiological surfactants, bile salts, and phospholipids that are present in the gastrointestinal fluids it mimics. FaSSIF (pH=6.5) has the average pH of a fasted intestinal fluid with similar osmolarity. The FaSSIF buffer was prepared by adding 20 mL of phosphate buffer to FaSSIF Powder. The buffer was then added to the dry compound of interest at a concentration of 1 mg/mL and then incubated at 25° C. for 24 hours in a Rototherm Plus (Part #H2024). After incubation, the Eppendorf tubes were centrifuged and run on an Agilent 1260 LC-MS. The LC-MS method is a 5 min gradient method of 2% to 95% acetonitrile with water (0.05% TFA) using a Sunfire C18, 5 um 2.1×50 mm (Part #186002539) column. A dry reference compound of interest was diluted to a known 1 mg/mL concentration in 1:1 of water and acetonitrile. Step-wise serial dilutions were performed and run on an Agilent 1260 LC-MS using the same conditions to make a standard curve. The area under the curve is reported for the compound of interest in FaSSIF buffer and the reference standards. Calculations were performed and the predicted solubility, μg/mL, was reported for compounds of the examples.

[3] = test system: pSTAT5 in SET-2 cells in whole blood; experiment: pSTAT5 SET-2 Whole Blood MSD Assay; type: cell-based; settings: Homo sapiens, 2 hour incubation, read-out: SET2 WB IC50
Description: SET-2 cells shipped from ABS, RPMI1640 medium, Fetal Bovine Serum from Gibco, Phospho-STAT5a,b Whole Cell Lysate Kit from Mesoscale, Retronectin (Recombinant Human Fibronectin Fragment) from TaKaRa, 96 well cell culture plate flat bottom from Corning, lysis buffer from Cell Signaling Technology, and sterile PBS from Gibco. Whole Blood from by BioIVT.
SET-2 cells were cultured in RPMI media with 20% FBS at 37° C. humidified incubator supplied with 5% CO2. On the day of the assay, 40 uL per well of diluted retronectin working solution was added to sterile 96-well clear flat bottom tissue culture plates (1:200 dilution of retronectin in sterile PBS) and incubated at 37 C for 1 hour. After 1 hour, the retronectin working solution was aspirated and SET-2 cells were seeded at 100,000/well in RPMI+20% FBS. Cells were incubated overnight at 37° C. and 5% CO2. The next day, the medium was removed and 40 μL of diluted compounds in serum-free RPMI and whole blood was added to the cells for a 2 hour incubation at 37° C. and 5% CO2. The compound starting concentration is 20 μM and 2.5 fold serial diluted down to 0.21 nM. The whole blood and compound mixture was then aspirated off using the BlueCat plate washer and washed 1× with PBS. Cells were lysed by adding 40 μL of 3× complete lysis buffer and shaken at room temperature for 45-60 minutes (complete lysis buffer consists of Cell Signaling Technology lysis buffer diluted to 3× and supplemented with Mesoscale's protease inhibitor, phosphatase I inhibitor, and phosphatase II inhibitor). The pSTAT5 MSD plates were blocked by adding 150 μL of Blocker A solution per well to the MSD plates and incubated at room temperature with shaking at 400 rpm for one hour or longer. After blocking, plates were washed 3× with 300 μL/well of 1× Tris Wash Buffer. After lysis, added 25 μL per well of lysed sample was added to MSD plate and incubated with shaking at 4° C. wrapped in foil overnight. The next day, plates were washed again and 25 μL/well of diluted 1× Detection Antibody Solution, wrapped in foil, and incubated at room temperature with shaking at 400 rpm for 1 hour. Plates were then washed again and lastly, 150 μL/well of 1× Read Buffer T was added to all wells. Plates were analyzed on MSD Discovery within 5 minutes. […] Data analysis was performed in GraphPad Prism using a 4-parameter fit and data was reported as Average±SD.

Sequence of pseudo-kinase domain (JH2) of human V617F mutant JAK2 (O60674 536-812 V617F/W659A/W777A/F794H): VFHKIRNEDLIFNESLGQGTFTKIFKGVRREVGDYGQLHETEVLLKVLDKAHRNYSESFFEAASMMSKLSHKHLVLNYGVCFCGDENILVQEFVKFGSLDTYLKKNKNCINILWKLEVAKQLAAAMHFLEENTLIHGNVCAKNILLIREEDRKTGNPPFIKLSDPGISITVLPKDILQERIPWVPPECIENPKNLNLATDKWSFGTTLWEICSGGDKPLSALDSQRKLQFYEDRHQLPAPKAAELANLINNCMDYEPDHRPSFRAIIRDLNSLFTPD

Structure (SMILES) | IC50 [1] | solubility at 24 h ([2]; read-out: Solubility Fassif) | IC50 [3] | solubility at 24 h ([2]; read-out: FaSSIF solubility)
[2H]C([2H])([2H])N(Cc1ccc(-c2[nH]c3ncc4c(c3c2-c2ccc(OCCOC)cc2)n([C@@H]2CC[C@@H](NC(=O)OC)C2)c(=O)n4C([2H])([2H])[2H])cc1)C([2H])([2H])[2H] [Example 27, Methyl ((1R,3R)-3-(7-(4-((bis(methyl-d3)amino)methyl)phenyl)-8-(4-(2-methoxyethoxy)phenyl)-3-(methyl-d3)-2-oxo-3,6-dihydroimidazo[4,5-d]pyrrolo[2,3-b]pyridin-1(2H)-yl)cyclopentyl)carbamate] | ≤ 10 nM | > 500 µg/mL | ≤ 2500 nM | 
[2H]C([2H])([2H])n1c(=O)n([C@@H]2CC[C@@H](NC(=O)OC)C2)c2c3c(-c4ccc5c(cnn5C(C)C)c4)c(-c4ccc(CN(C)C)cc4)[nH]c3ncc21 [Example 26, Methyl ((1R,3R)-3-(7-(4-((dimethylamino)methyl)phenyl)-8-(1-isopropyl-1H-indazol-5-yl)-3-(methyl-d3)-2-oxo-3,6-dihydroimidazo[4,5-d]pyrrolo[2,3-b]pyridin-1(2H)-yl)cyclopentyl)carbamate] | ≤ 10 nM | > 500 µg/mL | ≤ 2500 nM | 
COc1nn(C)cc1-c1[nH]c2ncc3c(c2c1-c1ccc2c(cnn2C)c1)n(C1CCOCC1)c(=O)n3C [Comparative Example A, reference compound] | ≤ 10 nM | ≤ 50 µg/mL | 5000 to 7500 nM | < 20 µg/mL
COc1nn(C)cc1-c1[nH]c2ncc3c(c2c1-c1ccc2c(cnn2C)c1)n([C@H]1CC[C@@H](CC#N)CC1)c(=O)n3C [E, reference compound] | ≤ 10 nM | ≤ 50 µg/mL | > 7500 nM | 
COC(=O)N[C@@H]1CC[C@@H](n2c(=O)n(C)c3cnc4[nH]c(-c5ccc(CN(C)C)cc5)c(-c5ccc(F)cc5)c4c32)C1 [Example 28, Methyl ((1R,3R)-3-(7-(4-((dimethylamino)methyl)phenyl)-8-(4-fluorophenyl)-3-methyl-2-oxo-3,6-dihydroimidazo[4,5-d]pyrrolo[2,3-b]pyridin-1(2H)-yl)cyclopentyl)carbamate] | ≤ 10 nM | > 500 µg/mL | ≤ 2500 nM | 
[2H]C([2H])([2H])n1ncc2cc(-c3c(-c4cn(C)nc4OC)[nH]c4ncc5c(c34)n(C3CCOCC3)c(=O)n5C)ccc21 [Comparative Example B, reference compound] | ≤ 10 nM | ≤ 50 µg/mL | 5000 to 7500 nM | 
[2H]C([2H])([2H])N(Cc1ccc(-c2[nH]c3ncc4c(c3c2-c2ccc3c(c2)CC(C)(C)O3)n([C@@H]2CC[C@@H](NC(=O)OC)C2)c(=O)n4C([2H])([2H])[2H])cc1)C([2H])([2H])[2H] [Example 25, Methyl ((1R,3R)-3-(7-(4-((bis(methyl-d3)amino)methyl)phenyl)-8-(2,2-dimethyl-2,3-dihydrobenzofuran-5-yl)-3-(methyl-d3)-2-oxo-3,6-dihydroimidazo[4,5-d]pyrrolo[2,3-b]pyridin-1(2H)-yl)cyclopentyl)carbamate] | ≤ 10 nM | 50 to 500 µg/mL (≈ 80.9 to 809 µM) | ≤ 2500 nM | 
[2H]C([2H])([2H])N(Cc1ccc(-c2[nH]c3ncc4c(c3c2-c2ccc3c(c2)COC3(C)C)n([C@@H]2CC[C@@H](NC(=O)OC)C2)c(=O)n4C([2H])([2H])[2H])cc1)C([2H])([2H])[2H] [Example 29, Methyl ((1R,3R)-3-(7-(4-((bis(methyl-d3)amino)methyl)phenyl)-8-(1,1-dimethyl-1,3-dihydroisobenzofuran-5-yl)-3-(methyl-d3)-2-oxo-3,6-dihydroimidazo[4,5-d]pyrrolo[2,3-b]pyridin-1(2H)-yl)cyclopentyl)carbamate] | ≤ 10 nM | > 500 µg/mL | ≤ 2500 nM | 
